From patent publication US8648105B2, “Diarylthiohydantoin compounds” (The Regents of the University of California, priority 2006, dated 2014)

Key:
Type in all cases: cell-based
Design in all cases: Fold induction, AR response reporter
AR [1] = biological target: T1, AR (Homo sapiens, UniProt P10275); details: AR over expressed LNCaP, absence of R1881
T1 sequence (P10275 1-920): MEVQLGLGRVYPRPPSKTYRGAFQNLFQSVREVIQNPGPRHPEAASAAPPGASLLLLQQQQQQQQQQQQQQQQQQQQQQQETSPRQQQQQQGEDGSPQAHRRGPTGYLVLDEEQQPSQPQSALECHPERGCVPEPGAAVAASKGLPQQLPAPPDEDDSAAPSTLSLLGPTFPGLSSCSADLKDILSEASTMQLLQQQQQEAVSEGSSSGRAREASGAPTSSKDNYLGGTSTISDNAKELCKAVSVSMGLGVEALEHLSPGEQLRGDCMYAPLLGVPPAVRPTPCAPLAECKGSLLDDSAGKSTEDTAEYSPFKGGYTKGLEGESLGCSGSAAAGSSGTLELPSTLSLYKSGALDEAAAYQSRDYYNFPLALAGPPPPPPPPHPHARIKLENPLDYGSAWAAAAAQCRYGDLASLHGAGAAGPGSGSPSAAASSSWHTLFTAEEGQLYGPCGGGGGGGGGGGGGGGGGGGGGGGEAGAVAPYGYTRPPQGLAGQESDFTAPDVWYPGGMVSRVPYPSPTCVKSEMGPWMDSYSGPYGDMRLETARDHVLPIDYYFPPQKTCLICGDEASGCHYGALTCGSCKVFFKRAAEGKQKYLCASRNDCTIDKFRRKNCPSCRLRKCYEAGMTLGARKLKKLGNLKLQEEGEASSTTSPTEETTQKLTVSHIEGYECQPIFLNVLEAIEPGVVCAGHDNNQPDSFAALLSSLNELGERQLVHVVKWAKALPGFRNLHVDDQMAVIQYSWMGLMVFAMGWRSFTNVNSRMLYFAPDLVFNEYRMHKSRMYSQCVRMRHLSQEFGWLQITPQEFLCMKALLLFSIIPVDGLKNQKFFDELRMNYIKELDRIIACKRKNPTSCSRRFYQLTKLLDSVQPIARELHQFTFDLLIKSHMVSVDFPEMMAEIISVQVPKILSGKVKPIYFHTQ

AR [2] = biological target: T1, AR; details: LN-AR, absence of R1881
Experimental: Activities of AR response reporter were measured.

AR [3] = biological target: T1, AR; details: for inhibitory activity on AR response reporter: hormone refractory LNCaP-AR; for luciferase activity in LNCaP-AR cells: 125 nM to 1000 nM; for luciferase activity in LNCaP-AR cells / rank by relative luciferase activity, most active to least active: FIG. 3; for rank by relative luciferase activity, most active to least active: 500 nM
Experimental: The compounds were subjected to tests using an artificial AR response reporter system in a hormone refractory prostate cancer cell line. […] After two days of incubation, reporter activities were assayed.

AR [4] = biological target: T1, AR; details: for rank by relative PSA level, most active to least active: 500 nM; for PSA levels of LN-AR cells: 100, 200, 500, and 1000 nM, FIG. 20
Experimental: It is well established that PSA levels are indicators of AR activities in prostate cancer. […] The LNCaP-AR cells are a line of lymph node carcinoma of prostate cells transduced with a plasmid that makes express androgen receptors. […] After four days incubation, secreted PSA levels were assayed using PSA ELISA kits (American Qualex, San Clemente, Calif.)

[5] = LN/AR cell line, 125 nmol to 1000 nmol

CC1(C)C(=O)N(c2ccc(C#N)c(C(F)(F)F)c2)C(=S)N1CCCCO [Example 29, 4-[3-(4-hydroxybutyl)-4,4-dimethyl-5-oxo-2-thioxoimidazolidin-1-yl]-2-trifluoromethylbenzonitrile, reference compound]
agonistic activity on secreted PSA (AR [1]): stimulated PSA expression | agonistic activity on AR response reporter (AR [2]): strongly activated AR | IC50 (nM) Reporter (AR [3]; LNCaP-AR, 100 pM R1881, two days, No = did not inhibit AR response reporter): No (*)

CN1C(=S)N(c2ccc(C#N)c(C(F)(F)F)c2)C(=O)C12CCC2 [NC24, 4-(5-methyl-8-oxo-6-thioxo-5,7-diazaspiro[3.4]oct-7-yl)-2-trifluoromethylenzonitrile, reference compound]
agonistic activity on secreted PSA (AR [1]): stimulated PSA expression | agonistic activity on AR response reporter (AR [2]): strongly activated AR | inhibitory activity on AR response reporter (AR [3]): no inhibitory activities

CN1C(=O)N(c2ccc(C#N)c(C(F)(F)F)c2)C(=O)C12CCCC2 [NC27, 4-(1-methyl-2,4-dioxo-1,3-diaza-spiro[4.4]non-3-yl)-2-trifluoromethylbenzonitrile, reference compound]
agonistic activity on AR response reporter (AR [2]): strongly activated AR | inhibitory activity on AR response reporter (AR [3]): no inhibitory activities

N#Cc1ccc(N2C(=O)C3(CCCC3)NC2=S)cc1C(F)(F)F [NC28, 4-(4-oxo-2-thioxo-1,3-diazaspiro[4.4]non-3-yl)-2-trifluoromethylbenzonitrile, reference compound]
agonistic activity on AR response reporter (AR [2]): strongly activated AR | inhibitory activity on AR response reporter (AR [3]): no inhibitory activities

CCNC(=S)N=C1N(c2ccc(C#N)c(C(F)(F)F)c2)C(=S)N(c2ccc(C)cc2)C1(C)C [NC34, 1-[3-(4-cyano-3-trifluoromethyl-phenyl)-5,5-dimethyl-2-thioxo-1-p-tolyl-imidazolidin-4-ylidene]-3-ethyl-thiourea]
agonistic activity on secreted PSA (AR [1]): no agonistic activities | agonistic activity on AR response reporter (AR [2]): no agonistic activity

Cc1ccc(N2C(=S)N(c3ccc(C#N)c(C(F)(F)F)c3)C(=NC(=S)Nc3ccccc3)C23CCC3)cc1 [NC35, 1-[7-(4-cyano-3-trifluoromethyl-phenyl)-6-thioxo-5-p-tolyl-5,7-diaza-spiro[3.4]oct-8-ylidene]-3-phenyl-thiourea]
agonistic activity on secreted PSA (AR [1]): no agonistic activities | agonistic activity on AR response reporter (AR [2]): no agonistic activity

Cc1ccc(N2C(=S)N(c3ccc(C#N)c(C(F)(F)F)c3)C(=NC(=S)Nc3ccc(C#N)c(C(F)(F)F)c3)C23CCC3)cc1 [NC36, 1-(4-Cyano-3-trifluoromethyl-phenyl)-3-[7-(4-cyano-3-trifluoromethyl-phenyl)-6-thioxo-5-p-tolyl-5,7-diaza-spiro[3.4]oct-8-ylidene]-thiourea]
agonistic activity on secreted PSA (AR [1]): no agonistic activities | agonistic activity on AR response reporter (AR [2]): no agonistic activity

N#Cc1ccc(N2C(=O)C3(CCC3)N(c3ccc(CCC(N)=O)cc3)C2=S)cc1C(F)(F)F [NC43, 3-{4-[7-(4-cyano-3-trifluoromethylphenyl)-8-oxo-6-thioxo-5,7-diaza-spiro[3.4]oct-5-yl]-phenyl}-propionamide]
decrease in PSA level of LNCaP-AR cells (comparison) (AR [4]): greater decrease in PSA level of LNCaP-AR cells than NC45 and NC49 | rank by relative PSA level, most active to least active (AR [4]): NC50>NC48>NC7>NC43>NC44>NC49>NC50>NC45>bicalutamide

CNC(=O)CCc1ccc(N2C(=S)N(c3ccc(C#N)c(C(F)(F)F)c3)C(=O)C23CCC3)cc1 [NC44, 3-{4-[7-(4-Cyano-3-trifluoromethylphenyl)-8-oxo-6-thioxo-5,7-diaza-spiro[3.4]oct-5-yl]-phenyl}-N-methyl-propionamide]
decrease in PSA level of LNCaP-AR cells (comparison) (AR [4]): greater decrease in PSA level of LNCaP-AR cells than NC45 and NC49 | rank by relative PSA level, most active to least active (AR [4]): NC50>NC48>NC7>NC43>NC44>NC49>NC50>NC45>bicalutamide

N#Cc1ccc(N2C(=O)C3(CCC3)N(c3ccc(CCC(=O)NCCO)cc3)C2=S)cc1C(F)(F)F [NC45, 3-{4-[7-(4-cyano-3-trifluoromethylphenyl)-8-oxo-6-thioxo-5,7-diaza-spiro[3.4]oct-5-yl]-phenyl}-N-(2-hydroxyethyl)-propionamide]
decrease in PSA level of LNCaP-AR cells (comparison) (AR [4]): greater decrease in PSA level than bicalutamide | rank by relative PSA level, most active to least active (AR [4]): NC50>NC48>NC7>NC43>NC44>NC49>NC50>NC45>bicalutamide

N#Cc1ccc(N2C(=O)C3(CCC3)N(c3ccc(CCCC(N)=O)cc3)C2=S)cc1C(F)(F)F [NC47, 4-{4-[7-(4-Cyano-3-trifluoromethylphenyl)-8-oxo-6-thioxo-5,7-diaza-spiro[3.4]oct-5-yl]-phenyl}-butyramide]
PSA level (comparison) (AR [4]; [5]): less than the PSA level upon exposure to NC42 and NC46

N#Cc1ccc(N2C(=O)C3(CCC3)N(c3ccc(N4CCNCC4)cc3)C2=S)cc1C(F)(F)F [NC49, 4-[8-Oxo-5-(4-piperazin-1-yl-phenyl)-6-thioxo-5,7-diazaspiro[3.4]oct-7-yl]-2-trifluoromethylbenzonitrile]
decrease in PSA level of LNCaP-AR cells (comparison) (AR [4]): greater decrease in PSA level than bicalutamide | rank by relative PSA level, most active to least active (AR [4]): NC50>NC48>NC7>NC43>NC44>NC49>NC50>NC45>bicalutamide

CS(=O)(=O)N1CCN(c2ccc(N3C(=S)N(c4ccc(C#N)c(C(F)(F)F)c4)C(=O)C34CCC4)cc2)CC1 [NC50, 4-{5-[4-(4-methanesulfonylpiperazin-1-yl)-phenyl]-8-oxo-6-thioxo-5,7-diazaspiro[3.4]oct-7-yl}-2-trifluoromethylbenzonitrile]
decrease in PSA level of LNCaP-AR cells (comparison) (AR [4]): greater decrease in PSA level of LNCaP-AR cells than NC45 and NC49 | rank by relative PSA level, most active to least active (AR [4]): NC50>NC48>NC7>NC43>NC44>NC49>NC50>NC45>bicalutamide

CNC(=O)c1ccc(N2C(=S)N(c3ccc(C#N)c(C(F)(F)F)c3)C(=O)C23CCCC3)cc1F [NC55, 4-(3-(4-Cyano-3-(trifluoromethyl)phenyl)-4-oxo-2-thioxo-1,3-diazaspiro[4.4]nonan-1-yl)-2-fluoro-N-methylbenzamide]
PSA levels of LN-AR cells (AR [4]): PSA levels of LN-AR cells decreased

CN(C)C(=O)CCCc1ccc(N2C(=S)N(c3ccc(C#N)c(C(F)(F)F)c3)C(=O)C23CCC3)cc1 [NC56, 4-(4-(7-(4-Cyano-3-(trifluoromethyl)phenyl)-8-oxo-6-thioxo-5,7-diazaspiro[3.4]octan-5-yl)phenyl)-N,N-dimethylbutanamide]
PSA levels of LN-AR cells (AR [4]): PSA levels of LN-AR cells decreased

N#CCCCc1ccc(N2C(=S)N(c3ccc(C#N)c(C(F)(F)F)c3)C(=O)C23CCC3)cc1 [NC57, 4-(5-(4-(3-Cyanopropyl)phenyl)-8-oxo-6-thioxo-5,7-diazaspiro[3.4]octan-7-yl)-2-(trifluoromethyl)benzonitrile]
PSA levels of LN-AR cells (AR [4]): PSA levels of LN-AR cells decreased

CS(=O)(=O)c1ccc(N2C(=S)N(c3ccc(C#N)c(C(F)(F)F)c3)C(=O)C23CCC3)cc1 [NC66]
luciferase activity in LNCaP-AR cells (AR [3]): acted to reduce luciferase activity | rank by relative luciferase activity, most active to least active (AR [3]): NC67>NC68>NC66>NC69>NC77=NC53>bicalutamide

COC(=O)c1ccc(N2C(=S)N(c3ccc(C#N)c(C(F)(F)F)c3)C(=O)C2(C)C)cc1 [NC67]
luciferase activity in LNCaP-AR cells (AR [3]): acted to reduce luciferase activity | rank by relative luciferase activity, most active to least active (AR [3]): NC67>NC68>NC66>NC69>NC77=NC53>bicalutamide

CNC(=O)c1ccc(N2C(=S)N(c3ccc(C#N)c(C(F)(F)F)c3)C(=O)C2(C)C)cc1 [NC68]
luciferase activity in LNCaP-AR cells (AR [3]): acted to reduce luciferase activity | rank by relative luciferase activity, most active to least active (AR [3]): NC67>NC68>NC66>NC69>NC77=NC53>bicalutamide | luciferase activity (comparison) (AR [3]; [5]): less than the luciferase activity upon exposure to NC103

N#Cc1ccc(N2C(=O)C3(CCC3)N(c3ccc(O)cc3F)C2=S)cc1C(F)(F)F [NC69]
luciferase activity in LNCaP-AR cells (AR [3]): acted to reduce luciferase activity | rank by relative luciferase activity, most active to least active (AR [3]): NC67>NC68>NC66>NC69>NC77=NC53>bicalutamide
